Some results are limits rather than exact numbers.

The source of these data is patent publication US20140044656A1, “NOVEL USE” (DSM IP ASSETS B.V., priority 2011, published 2014).

In data set [1] the test system is Normal human melanocytes NHM (HEMn-MP, Clonetics). Put plainly: Quantification of melanin synthesis in cell culture. Conditions: for total melanin content versus control (100%): three days, absorbance at 405 nm. Type of data set: cell-based. The protocol: Normal human melanocytes NHM (HEMn-MP, Clonetics) were seeded in 96 well cell culture plates and grown to sub-confluence for two days in a mixture of M2-Medium (Clonetics) and Medium (Promocell). Culture medium was exchanged with Culture Medium containing Steviol (96%) and melanogenesis progressed for another three days at 37° C. with another medium exchange on day two. Including cell layer and culture supernatant the total melanin was extracted using 1.7M KOH with vigorous shaking at RT. The total melanin content was determined at 405 nm in an absorbance plate reader versus a control (100%)

Data set [2] can be described thus: Discoloration experiment (Pantone Color Index of aqueous solution at different pH). Type of data set: physicochemical. Conditions: for Pantone Index: 1% solution in water. The procedure: Steviol (87%) was dissolved at 1 wt.-% in water and the pH adjusted to different values as shown below. At pH 9, the solution turns brown within 1 day. However, the more acidic the pH, the less discoloration was observed. The color was determined visually using the Pantone Color Index. Pantone Colours index of 1% Steviol solution in water at different pH: […]

With `C=C1C[C@@]23CC[C@H]4[C@@](C)(CCC[C@@]4(C)C(=O)O)[C@@H]2CC[C@]1(O)C3` [Steviol, steviol], the “effect on the production of melanin in human melanocytes” value in data set [1] (0.25-1 microM) is listed as “clear dose dependent positive effect”. The “total melanin content versus control (100%)” value in data set [1] (0.25 microM) is given as 109%; in data set [1] (0.5 micro M), 124%; in data set [1] (1 micro M), 130%. Moreover, in data set [1] (melanin production in human melanocytes), the “potency relative to the positive control Glycyrrhizin” value is listed as “about 1000 times”. For the same compound, the “Pantone Index” value in data set [2] (pH 6, visual) was 155; in data set [2] (pH 6.5, visual), 155; in data set [2] (pH 7, visual) it was 158; in data set [2] (pH 9, visual), 160. In data set [2] (1 wt.-% in water, pH 9), the “time until solution turns brown” value was no more than 1 days.
